Reference: US20150105252A1, “SUBSTITUTED PYRAZOLES AS HERBICIDES” (E I DU PONT DE NEMOURS AND COMPANY, priority 2013, published 2015)

Legend:
pigweed = assay: Test D preemergence; type: in vivo, Amaranthus retroflexus; details: for Plant response rating, Pigweed: Preemergence, scale 0 to 100
Method in brief: (§1)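 Preemergence: seeds sown in silt loam soil and sprayed with test chemical in non-phytotoxic solvent mixture with surfactant. Postemergence: plants grown in peat/vermiculite medium, sprayed at 2–18 cm (1- to 4-leaf stage). Visual rating versus untreated controls after 14–21 days, 0 (no effect) to 100 (complete control).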

speedwell = assay: Test D preemergence; type: in vivo, Veronica persica; details: for Plant response rating, Speedwell: Preemergence, scale 0 to 100
Method in brief: as §1

bromegrass, downy = assay: Test D preemergence; type: in vivo, Bromus tectorum; details: for Plant response rating, Bromegrass, Downy: Preemergence, scale 0 to 100
Method in brief: as §1

radish, wild = assay: Test D preemergence; type: in vivo, Raphanus raphanistrum; details: for Plant response rating, Radish, Wild: Preemergence, scale 0 to 100
Method in brief: as §1

chickweed = assay: Test D postemergence; type: in vivo, Stellaria media; details: scale 0 to 100
Method in brief: as §1

lambsquarters = assay: Test D preemergence; type: in vivo, Chenopodium album; details: for Plant response rating, Lambsquarters: Preemergence, scale 0 to 100
Method in brief: as §1

canarygrass = assay: Test D preemergence; type: in vivo, Phalaris minor; details: for Plant response rating, Canarygrass: Preemergence, scale 0 to 100
Method in brief: as §1

field violet = assay: Test D preemergence; type: in vivo, Viola arvensis; details: for Plant response rating, Field Violet: Preemergence, scale 0 to 100
Method in brief: as §1

oilseed rape = assay: Test D postemergence; type: in vivo, Brassica napus; details: scale 0 to 100
Method in brief: as §1

ryegrass, Italian [1] = assay: Test D postemergence; type: in vivo, Lolium multiflorum; details: scale 0 to 100
Method in brief: as §1

kochia = assay: Test D postemergence; type: in vivo, Kochia scoparia; details: scale 0 to 100
Method in brief: as §1

wheat, winter = assay: Test D postemergence; type: in vivo, Triticum aestivum; details: scale 0 to 100
Method in brief: as §1

wheat, spring = assay: Test D postemergence; type: in vivo, Triticum aestivum; details: scale 0 to 100
Method in brief: as §1

ryegrass, Italian [2] = assay: Test D preemergence; type: in vivo, Lolium multiflorum; details: for Plant response rating, Ryegrass, Italian: Preemergence, scale 0 to 100
Method in brief: as §1

barley, spring = assay: Test D preemergence; type: in vivo, Hordeum vulgare; details: for Plant response rating, Barley, Spring: Preemergence, scale 0 to 100
Method in brief: as §1

barley, winter = assay: Test D preemergence; type: in vivo, Hordeum vulgare; details: for Plant response rating, Barley, Winter: Preemergence, scale 0 to 100
Method in brief: as §1

field poppy = assay: Test D preemergence; type: in vivo, Papaver rhoeas; details: for Plant response rating, Field Poppy: Preemergence, scale 0 to 100
Method in brief: as §1

bluegrass = assay: Test D postemergence; type: in vivo, Poa annua; details: scale 0 to 100
Method in brief: as §1

blackgrass = assay: Test D postemergence; type: in vivo, Alopecurus myosuroides; details: scale 0 to 100
Method in brief: as §1

oat, wild = assay: Test D postemergence; type: in vivo, Avena fatua; details: scale 0 to 100
Method in brief: as §1

[3] = 16 g ai/ha, taken as preemergence

Cc1cc(C(=O)NCC(F)(F)F)nn1Cc1ccnc(C(F)(F)F)c1 [Compound 74]
35: Chickweed plant response rating (chickweed; Postemergence, 31 g ai/ha) | Oilseed Rape plant response rating (oilseed rape; Postemergence, 125 g ai/ha) | Kochia plant response rating (kochia; postemergence, 62 g ai/ha)
10: Ryegrass, Italian plant response rating (ryegrass, Italian [1]; Postemergence, 125 g ai/ha)
75: Plant response rating, Radish, Wild (radish, wild; 62 g ai/ha)
80: Plant response rating, Field Poppy (field poppy; 31 g ai/ha)
70: Plant response rating, Pigweed (pigweed; 62 g ai/ha)
60: Plant response rating, Field Violet (field violet; 31 g ai/ha) | Plant response rating, Field Violet (field violet; 62 g ai/ha)
95: Plant response rating, Field Violet (field violet; 125 g ai/ha) | Plant response rating, Field Poppy (field poppy; 62 g ai/ha)
50: Plant response rating, Lambsquarters (lambsquarters; 31 g ai/ha) | Plant response rating (scale 0 to 100), Field Poppy (field poppy; [3])
25: Chickweed plant response rating (chickweed; postemergence, 62 g ai/ha) | Plant response rating (scale 0 to 100), Field Violet (field violet; [3]) | Oilseed Rape plant response rating (oilseed rape; postemergence, 62 g ai/ha) | Kochia plant response rating (kochia; Postemergence, 31 g ai/ha)
30: Plant response rating, Pigweed (pigweed; 31 g ai/ha)
5: Plant response rating, Bromegrass, Downy (bromegrass, downy; 62 g ai/ha) | Plant response rating, Canarygrass (canarygrass; 125 g ai/ha) | Ryegrass, Italian plant response rating (ryegrass, Italian [1]; Postemergence, 31 g ai/ha) | Ryegrass, Italian plant response rating (ryegrass, Italian [1]; postemergence, 62 g ai/ha) | Wheat, Spring plant response rating (wheat, spring; Postemergence, 125 g ai/ha) | Plant response rating, Barley, Spring (barley, spring; 125 g ai/ha) | Plant response rating, Bluegrass (bluegrass; Postemergence, 16 g ai/ha) | Bluegrass plant response rating (bluegrass; Postemergence, 31 g ai/ha) | Bluegrass plant response rating (bluegrass; Postemergence, 125 g ai/ha) | Bluegrass plant response rating (bluegrass; postemergence, 62 g ai/ha) | Blackgrass plant response rating (blackgrass; postemergence, 62 g ai/ha) | Oat, Wild plant response rating (oat, wild; Postemergence, 31 g ai/ha) | Oat, Wild plant response rating (oat, wild; Postemergence, 125 g ai/ha) | Oat, Wild plant response rating (oat, wild; postemergence, 62 g ai/ha)
20: Plant response rating (scale 0 to 100), Lambsquarters (lambsquarters; [3]) | Plant response rating, Lambsquarters (lambsquarters; 62 g ai/ha) | Oilseed Rape plant response rating (oilseed rape; Postemergence, 31 g ai/ha)
15: Plant response rating (scale 0 to 100), Pigweed (pigweed; [3]) | Plant response rating, Radish, Wild (radish, wild; 31 g ai/ha) | Plant response rating, Chickweed (chickweed; Postemergence, 16 g ai/ha) | Plant response rating, Oilseed Rape (oilseed rape; Postemergence, 16 g ai/ha) | Plant response rating, Kochia (kochia; Postemergence, 16 g ai/ha)
100: Plant response rating, Pigweed (pigweed; 125 g ai/ha) | Plant response rating (scale 0 to 100), Speedwell (speedwell; [3]) | Plant response rating, Speedwell (speedwell; 31 g ai/ha) | Plant response rating, Speedwell (speedwell; 62 g ai/ha) | Plant response rating, Speedwell (speedwell; 125 g ai/ha) | Plant response rating, Radish, Wild (radish, wild; 125 g ai/ha) | Plant response rating, Field Poppy (field poppy; 125 g ai/ha)
85: Plant response rating, Lambsquarters (lambsquarters; 125 g ai/ha)
0: Plant response rating (scale 0 to 100), Bromegrass, Downy (bromegrass, downy; [3]) | Plant response rating, Bromegrass, Downy (bromegrass, downy; 31 g ai/ha) | Plant response rating, Bromegrass, Downy (bromegrass, downy; 125 g ai/ha) | Plant response rating (scale 0 to 100), Radish, Wild (radish, wild; [3]) | Plant response rating (scale 0 to 100), Canarygrass (canarygrass; [3]) | Plant response rating, Canarygrass (canarygrass; 31 g ai/ha) | Plant response rating, Canarygrass (canarygrass; 62 g ai/ha) | Plant response rating, Ryegrass, Italian (ryegrass, Italian [1]; Postemergence, 16 g ai/ha) | Plant response rating, Wheat, Winter (wheat, winter; Postemergence, 16 g ai/ha) | Wheat, Winter plant response rating (wheat, winter; Postemergence, 31 g ai/ha) | Wheat, Winter plant response rating (wheat, winter; Postemergence, 125 g ai/ha) | Wheat, Winter plant response rating (wheat, winter; postemergence, 62 g ai/ha) | Plant response rating, Wheat, Spring (wheat, spring; Postemergence, 16 g ai/ha) | Wheat, Spring plant response rating (wheat, spring; Postemergence, 31 g ai/ha) | Wheat, Spring plant response rating (wheat, spring; postemergence, 62 g ai/ha) | Plant response rating (scale 0 to 100), Ryegrass, Italian (ryegrass, Italian [2]; [3]) | Plant response rating, Ryegrass, Italian (ryegrass, Italian [2]; 31 g ai/ha) | Plant response rating, Ryegrass, Italian (ryegrass, Italian [2]; 62 g ai/ha) | Plant response rating, Ryegrass, Italian (ryegrass, Italian [2]; 125 g ai/ha) | Plant response rating (scale 0 to 100), Barley, Spring (barley, spring; 16 g ai/ha, taken as preemergence, 0 = no effect, 100 = complete control) | Plant response rating, Barley, Spring (barley, spring; 31 g ai/ha) | Plant response rating, Barley, Spring (barley, spring; 62 g ai/ha) | Plant response rating (scale 0 to 100), Barley, Winter (barley, winter; [3]) | Plant response rating, Barley, Winter (barley, winter; 31 g ai/ha) | Plant response rating, Barley, Winter (barley, winter; 62 g ai/ha) | Plant response rating, Barley, Winter (barley, winter; 125 g ai/ha) | Plant response rating, Blackgrass (blackgrass; Postemergence, 16 g ai/ha) | Blackgrass plant response rating (blackgrass; Postemergence, 31 g ai/ha) | Blackgrass plant response rating (blackgrass; Postemergence, 125 g ai/ha) | Plant response rating, Oat, Wild (oat, wild; Postemergence, 16 g ai/ha)
65: Chickweed plant response rating (chickweed; Postemergence, 125 g ai/ha) | Kochia plant response rating (kochia; Postemergence, 125 g ai/ha)
